Results reported in US9409876B2, “Bradykinin receptor antagonists and pharmaceutical compositions containing them” (DOMPE' FARMACEUTICI S.P.A., priority 2013, dated 2016).

target: T1, BKB1 receptors (Homo sapiens, UniProt P46663); assay: Calcium Mobilization Assay (FLIPR), IMR-90 cells, BKB1; type: cell-based; details: IL-1 induced IMR-90 cells, agonist desArg10-kallidin (DAKD)
T1 construct: Human (IMR-90) lung fibroblast cells expressing native BKB1 receptors; endogenous in cells; host or cells: IMR-90 human lung fibroblasts, treated with human IL-1 to up-regulate BKB1
T1 sequence (P46663 1-353): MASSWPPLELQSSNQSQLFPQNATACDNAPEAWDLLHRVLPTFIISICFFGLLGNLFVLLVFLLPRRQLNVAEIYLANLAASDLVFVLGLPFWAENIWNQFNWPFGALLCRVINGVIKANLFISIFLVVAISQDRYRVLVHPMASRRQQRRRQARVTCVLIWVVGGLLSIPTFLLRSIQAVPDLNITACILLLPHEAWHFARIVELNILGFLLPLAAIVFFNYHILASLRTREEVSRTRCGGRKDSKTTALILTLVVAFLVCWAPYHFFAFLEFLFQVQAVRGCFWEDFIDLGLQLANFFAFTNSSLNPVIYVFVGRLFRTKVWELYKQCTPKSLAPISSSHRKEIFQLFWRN
Protocol: Calcium Mobilization Assay (FLIPR)—Human (IMR-90) lung fibroblast cells expressing native BKB1 receptors were harvested by trypsinization and seeded into black wall/clear bottom 96-well plates (Costar 3904; Corning Life Sciences, Acton, Mass.) at approximately 13,000 cells/well. After 1 day incubation, cells were treated with human IL-1 (0.35 ng/ml) in 10% FBS/MEM for 2 h to up-regulate BKB1 receptors. Induced cells were loaded with fluorescent calcium indicator by incubation with 2.3 µM Fluo-4/acetoxymethyl ester (Invitrogen) at 37° C. for 1.5 h in the presence of an anion transport inhibitor (2.5 mM probenecid in 1% FBS/MEM). Extracellular dye was removed by washing with assay buffer (2.5 mM probenecid, 0.1% BSA in 20 mM HEPES/HBSS without bicarbonate or phenol red, pH 7.5) and cell plates were kept in the dark until used. Test compounds were assayed at eight concentrations in triplicate.

| Structure (SMILES) | IC50 [µM] |
| --- | --- |
| COc1ccccc1CN(C(=O)c1ccc([N+](=O)[O-])cc1)C(C(=O)NCC1CCCO1)c1ccc(C)cc1 (centres unmarked) [28 (mix), N-(2-methoxybenzyl)-4-nitro-N-{1-(4-methylphenyl)-2-oxo-2-[(tetrahydrofuran-2-ylmethyl)amino]ethyl}benzamide] | 3 |
| Cc1ccc(C(C(=O)NCC2CCCO2)N(Cc2cccc(C)c2)C(=O)CN(C)C)cc1 (centres unmarked) [35 (mix), 2-(dimethylamino)-N-(3-methylbenzyl)-N-{1-(4-methylphenyl)-2-oxo-2-[(tetrahydrofuran-2-ylmethyl)amino]ethyl}acetamide] | 1.7 |
| Cc1ccc(C(C(=O)NCC2CCCO2)N(CC2CCCCC2)C(=O)CC2CCCC2)cc1 (centres unmarked) [48 (mix), N-(cyclohexylmethyl)-2-cyclopentyl-N-{1-(4-methylphenyl)-2-oxo-2-[(tetrahydrofuran-2-ylmethyl)amino]ethyl}acetamide] | 15 |
| COc1ccccc1CN(C(=O)C1CCC1)C(C(=O)NCC1CCCO1)c1ccc(C)cc1 (centres unmarked) [25 (mix), N-(2-methoxybenzyl)-N-{1-(4-methylphenyl)-2-oxo-2-[(tetrahydrofuran-2-ylmethyl)amino]ethyl}cyclobutanecarboxamide] | 15.7 |
| Cc1ccc(C(C(=O)NCC2CCCO2)N(Cc2cccnc2)C(=O)Cc2ccccc2C)cc1 (centres unmarked) [46 (mix), 2-(2-methylphenyl)-N-(pyridin-3-ylmethyl)-N-{1-(4-methylphenyl)-2-oxo-2-[(tetrahydrofuran-2-ylmethyl)amino]ethyl}acetamide] | 11.7 |
| Cc1ccc(C(C(=O)NCC2CCCO2)N(Cc2cccc(C)c2)C(=O)C2CC2C)cc1 (centres unmarked) [38 (mix), 2-methyl-N-(3-methylbenzyl)-N-{1-(4-methylphenyl)-2-oxo-2-[(tetrahydrofuran-2-ylmethyl)amino]ethyl}cyclopropanecarboxamide] | 12.7 |
| CCC(CC)CN(C(=O)C1CCCCC1)C(C(=O)NCC1CCCO1)c1ccc(C)cc1 (centres unmarked) [50 (mix), N-(2-ethylbutyl)-N-{1-(4-methylphenyl)-2-oxo-2-[(tetrahydrofuran-2-ylmethyl)amino]ethyl}cyclohexanecarboxamide] | 14.2 |
| Cc1ccc(C(C(=O)NCC2CCCO2)N(CC2CCCC2)C(=O)Cc2ccccc2C)cc1 (centres unmarked) [44 (mix), N-(cyclopentylmethyl)-2-(2-methylphenyl)-N-{1-(4-methylphenyl)-2-oxo-2-[(tetrahydrofuran-2-ylmethyl)amino]ethyl}acetamide] | 12.6 |
| COc1ccccc1CN(C(=O)c1ccc(C)cc1)C(C(=O)NCC1CCCO1)c1ccc(C)cc1 (centres unmarked) [20 (mix), 4-methyl-N-(2-methoxybenzyl)-N-{1-(4-methylphenyl)-2-oxo-2-[(tetrahydrofuran-2-ylmethyl)amino]ethyl}benzamide] | 6.1 |

Molecules with a lower IC50, results first:

| IC50 [µM] | Structure (SMILES) |
| --- | --- |
| 0.268 | COc1ccccc1CN(C(=O)Cn1ccc2ccccc21)C(C(=O)NCC1CCCO1)c1ccc(C)cc1 (centres unmarked) [31 (mix), 2-(1H-indol-1-yl)-N-(2-methoxybenzyl)-N-{1-(4-methylphenyl)-2-oxo-2-[(tetrahydrofuran-2-ylmethyl)amino]ethyl}acetamide] |
| 0.2 | COc1ccccc1CN(C(=O)Cc1ccccc1)[C@@H](C(=O)NC[C@H]1CCCO1)c1ccc(C)cc1 [Compound 7 (R,R), N-(2-methoxybenzyl)-N-{(1R)-1-(4-methylphenyl)-2-oxo-2-[(2R)-(tetrahydrofuran-2-ylmethyl)amino]ethyl}-2-phenylacetamide] |
| 0.3 | COc1ccccc1CC(=O)N(Cc1ccccc1OC)C(C(=O)NCC1CCCO1)c1ccc(C)cc1 (centres unmarked) [13 (mix)] |
| 0.3 | CCCCC(=O)N(Cc1ccccc1OC)C(C(=O)NCC1CCCO1)c1ccc(C)cc1 (centres unmarked) [14 (mix), N-(2-methoxybenzyl)-N-{1-(4-methylphenyl)-2-oxo-2-[(tetrahydrofuran-2-ylmethyl)amino]ethyl}pentanamide] |
| 0.358 | COc1ccccc1CN(C(=O)c1ccco1)[C@@H](C(=O)NC[C@H]1CCCO1)c1ccc(C)cc1 [Compound 4 (R,R), N-(2-methoxybenzyl)-N-[(1R)-1-(4-methylphenyl)-2-oxo-2-{[(2R)tetrahydrofuran-2-ylmethyl]amino}ethyl]furan-2-carboxamide] |
